In series [1] the test system is Tinzaparin. The series can be described thus: LMWH Tinzaparin neutralization in living rats (anti-Xa assay). The class given is in vivo, rat. The settings on record: 25 U Tinzaparin, then about 1 mg polymer or protamine (3 mg/kg). As for the experimental part:
The present example examines heparin binding polymer effectiveness in vivo. HBSPCM polymers were tested for their ability to neutralize UFH and LMWH in living rats. Rats were first injected with heparin or heparin derivative, and then injected with the JNK-1 polymers, protamine or saline control to neutralize the previously administered heparin or heparin derivative. Neutralization was measured by detecting the percentage of factor Xa using an anti-Xa assay as a measure of anticoagulant activity.
In addition, Enoxaparin alone and JNK-1 polymers+Enoxaparin were compared (FIG. 8C). An anti-Xa assay was used to measure heparin activity in rat blood. In this pilot study, rats were injected with 25 U of UFH, Tinzaparin or Enoxaparin (0 minutes). Blood was collected after UFH, Tinzaparin, or Enoxaparin infusion (5 minutes). Approximately 1 mg of JNK-1 polymers or protamine (dose was 3 mg/kg) was injected at 7 minutes and the blood was collected at 12 minutes after UFH/Tinzaparin/Enoxaparin infusion (5 minutes after JNK-1 infusion), and 17 minutes (10 minutes after JNK-1 polymer infusion). For subjects receiving Enoxaparin, blood was collected at additional time points (25 minutes and 30 minutes). Blood samples collected before the UFH, Enoxaparin or Tinzaparin infusion were used as a base control. […] Each data point shown reflects an average and standard deviation from five rats. […]

In series [2] the test system is Enoxaparin. The series is described as follows: Anti Xa neutralization of Enoxaparin in platelet poor plasma. The class given is biochemical, human. The settings on record: One IU LMWH per ml in platelet poor plasma. As for the experimental part:
Both JNK-1 and JNK-2 result in greater neutralization of unfractionated heparin at two doses (50 and 100 μg/ml), Tinzaparin (LMWH) and Enoxaparin (LMWH).

Series [3] concerns complement system. The series can be described thus: Complement activation, CH50 sheep erythrocyte lysis assay. The class given is biochemical. The note with it: serum, 0.05 and 0.5 mg/mL, 1 h, 37° C. The method, then:
The level of complement activation was measured by a CH50 sheep erythrocyte lysis assay. Ten microliter of each of the 0.5 and 5 mg/mL polymers or protamine was mixed with 90 μL of serum for 1 h at 37° C. The final concentration of polymer/protamine to serum was 0.05 and 0.5 mg/mL. One mg/mL heat-activated human IgG and 5 mM EDTA, after mixing with serum, were the positive and negative controls, respectively, for the study. 60 μL of post-incubation serum/polymer or protamine mixture was diluted by 120 μL of GVB^2+ (CompTech). Seventy-five microliter of GVB^2+ diluted serum/polymer or protamine mixture was incubated for 1 h at 37° C. with 75 μL of Ab-sensitized sheep erythrocyte (CompTech). The reaction was stopped by addition of 300 μL cold GVB-EDTA to each sample. The samples were centrifuged and the optical density of supernatant was measured at 540 nm. One hundred percent lysis of the sheep erythrocyte was done by dH2O. The percentage of complement activation was calculated by 100-% lysis of sheep erythrocytes.

The test system of series [4] is LMWH Tinzaparin. The series can be described thus: APTT assay, neutralization of LMWH Tinzaparin in citrate plasma. It is filed as biochemical, human. The method, then:
Citrate plasma was anti-coagulated with 2.0 U/ml LMWH (LMWH control) and was titrated with different concentrations of JNK-1 polymers (0.009 to 8.69 nanomoles/ml) (FIG. 4A) and protamine (0.2 to 222.2 nanomoles/ml) (FIG. 4B).
Citrate plasma was anticoagulated with 2.0 U/ml UFH, Enoxaparin and Tinzaparin and was treated with different concentrations of the HBSPCM polymers and protamine (0.001 to 0.25 mg/ml). The APTT was measured for each sample.
Citrate plasma was anticoagulated with UFH (2.0 IU/mL), Enoxaparin (2.0 IU/mL) and Tinzaparin (1.14 IU/mL) and was titrated with different concentrations of the HBSPCM polymers and protamine (0.001 to 0.25 mg/ml). The APTT was measured for each sample.
Ability of HBSPCM polymers JNK-9, JNK-10 and JNK-11 was studied for the range of concentration from 0.01 to 0.25 mg/mL prepared in 0.15 M saline. Citrated blood was spun at 3000 RPM for 10 min to obtain platelet poor plasma (PPP). The PPP was then heparinized by adding 45 μL of heparin (UFH, LMWH etc.) to 2200 μL of PPP final concentration of 2.0 IU/mL for UFH and Tinzaparin and 1.14 IU/mL for Enoxaparin. Normal control was prepared by adding 25 μL of 0.15 M saline to 250 μL of PPP. 25 μL of each antidote solution (polymer or protamine) was added to 225 μL of heparinized PPP. 250 μL of APTT reagent (actin FSL) was then added and samples were incubated for 3 min at 37° C. […]

Series [5] concerns platelets. The series can be described thus: Platelet activation of 23 kDa HBSPCM polymers (CD62-PE, flow cytometry). The class given is cell-based. The note with it: PRP, 0.5 mg/mL, 1 h, 37° C. The method, then:
The level of platelet activation was quantified by flow cytometry. Ninety microliter of PRP was incubated at 37° C. with 10 μL of 5 mg/mL of polymer or protamine (final concentration 0.5 mg/mL). After 1 h, aliquots of the incubation mixtures were removed for assessment of the platelet activation state. Five microliter of post-incubation platelet/polymer or protamine mixture, diluted in HEPES buffer, was incubated for 20 minutes in the dark with 5 μL of monoclonal anti-CD62-PE (Immunotech). The samples were then stopped with 0.5 mL of phosphate-buffered saline solution. The level of platelet activation was analyzed in a BD FACSCanto II flow cytometer (Becton Dickinson) by gating platelets specific events based on their FITC-CD42 fluorescence and light scattering profile. Activation of platelets was expressed as the percentage of platelet activation marker CD62-PE fluorescence detected in the 10,000 total events counted. Duplicate measurements were done, the mean of which was reported. Controls were done for the flow cytometric analysis. One U/ml of bovine thrombin (Sigma) was used as a positive control, and PE conjugated goat anti-mouse IgG polyclonal antibodies (Immunotech) was used as the non-specific binding control.
(A flow cytometer gives signals particle by particle.)

The subject of series [6] is blood.

“Also recorded” adds a separate entry of the source.

Turning to protamine, the “neutralization of anticoagulant activity of Tinzaparin in rats (anti-Xa)” value in series [1] was “could not completely neutralize the LMWH”. In series [2], the “Anti Xa Neutralization (%) of Enoxaparin at 100 μg/ml” value came to 73 ± 4%. Further, the “complement activation (CH50)” value in series [3] was “significant complement activation”. The “LMWH Tinzaparin neutralization (APTT)” value is “neutralizes UFH and LMWH only in the narrow concentration range” in series [4] (citrate plasma, Tinzaparin 2.0 U/ml or 1.14 IU/mL, 0.001 to 0.25 mg/ml); “not at all; also recorded: incapable of neutralizing LMWH” in series [4] (human citrate plasma anti-coagulated with LMWH Tinzaparin (2.0 U/ml), titrated with JNK-1 0.009 to 8.69 or protamine 0.2 to 222.2 nanomoles/ml). Also, in series [5], the “platelet activation (CD62-PE)” value is listed as “significant levels of platelet activation”. The “Blood compatibility at 1 mg/ml” value in series [6] is “poor [3]”.

Values taken from patent US10111902B2, “Polymers for reversing heparin-based anticoagulation” (University of British Columbia, priority 2011, dated 2018).
